Some test systems named below: MDA-N; DU-145 prostate; EKVX NSCLC; SF-295 CNS; U251 CNS; RPMI-8226 leukemia; UACC-62 melanoma; NCI/ADR-RES ovarian; HCT-116 colon; SF-539 CNS; SF-268 CNS; HOP-92 NSCLC; HS 578T breast.
Holding throughout (assay): DTP human tumour cell line panel, 48 h

SMILES strings stand for the structures.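 48-hour exposure; five concentrations; linearly interpolated endpoints. TGI: total growth inhibition.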

The TGI is the concentration giving total growth inhibition. With `Cc1cccc2sc(-c3ccc(O)cc3)nc12`, the TGI with MDA-N was 19.4 µM; in the assay on DU-145 prostate, 31.6 µM; in the assay with EKVX NSCLC, 16.8 µM; in the assay on SF-295 CNS it was 29.1 µM; with U251 CNS, 39.1 µM; with RPMI-8226 leukemia it was 44.2 µM. The TGI in the assay with UACC-62 melanoma is 30.1 µM; in the assay with NCI/ADR-RES ovarian, 38.9 µM; in the assay on HCT-116 colon, 28.9 µM; in the assay on SF-539 CNS it was 37.8 µM; with SF-268 CNS it was 31.9 µM.

As for `Cn1cc2ccccc2c1-c1nc(F)nc(Oc2ccc3c(c2)CC[C@@H]2C3CC[C@@]3(C)C2C[C@H](O)[C@@H]3O)n1` (stereo not given in full), the TGI stood at 55.5 µM in the assay with HOP-92 NSCLC; 40.7 µM in the assay with EKVX NSCLC; 33.9 µM in the assay on SF-295 CNS; 23.5 µM in the assay on U251 CNS; 41.9 µM with RPMI-8226 leukemia; 40.6 µM in the assay with UACC-62 melanoma. Also, the TGI was 28.1 µM with HCT-116 colon, 28.9 µM with SF-539 CNS and 36.8 µM in the assay on SF-268 CNS.

As for `CC1=CC[C@@]2(C)CC[C@](O)(C(C)C)C2C(OC(=O)c2ccccc2)C1` (stereo not given in full), the TGI turned out to be 29.7 µM with HOP-92 NSCLC; 47.9 µM in the assay on HS 578T breast; 32.5 µM in the assay with DU-145 prostate; 32.3 µM in the assay with EKVX NSCLC; 34.8 µM with SF-295 CNS; 60 µM in the assay on U251 CNS. The TGI worked out at 37.2 µM in the assay with RPMI-8226 leukemia; 41.5 µM in the assay with NCI/ADR-RES ovarian; 31.8 µM in the assay with HCT-116 colon; 37.4 µM with SF-539 CNS; 51.7 µM with SF-268 CNS.

Regarding `CCCCCCCCCOCC(COP(=O)([O-])OCC[N+](C)(C)C)OC` (stereo not given), the total growth inhibition concentration (TGI) in the assay on HOP-92 NSCLC, with EKVX NSCLC, with SF-295 CNS, in the assay on U251 CNS, in the assay with RPMI-8226 leukemia and in the assay on UACC-62 melanoma was > 100 µM throughout. Also, the TGI in the assay with NCI/ADR-RES ovarian, in the assay with HCT-116 colon, in the assay with SF-539 CNS and in the assay with SF-268 CNS was > 100 µM in each case.

For the compound `CCOC(=O)CC(NC(=O)c1[nH]cnc1/N=N/N(C)C)C(=O)OCC` (stereo not given), the TGI in the assay on EKVX NSCLC, in the assay on SF-295 CNS, in the assay on U251 CNS, with RPMI-8226 leukemia, in the assay on UACC-62 melanoma and in the assay with HCT-116 colon was > 100 µM in each case. Besides, the TGI with SF-539 CNS and in the assay with SF-268 CNS was > 100 µM in each case.

On to `CC(C)C1NC(=O)CC(c2ccccc2)N(N=O)C1c1ccccc1` (stereo not given), for which the TGI in the assay on HOP-92 NSCLC, with EKVX NSCLC, in the assay on SF-295 CNS, in the assay with U251 CNS, in the assay on RPMI-8226 leukemia and with UACC-62 melanoma was > 100 µM in each case. Also, the TGI in the assay with NCI/ADR-RES ovarian, with HCT-116 colon, in the assay on SF-539 CNS and in the assay with SF-268 CNS was > 100 µM each time.

With `CCOC(=O)c1nc2cc(C(F)(F)F)ccc2nc1Nc1ccc(C(=O)OC)s1`, the total growth inhibition concentration (TGI) in the assay on HOP-92 NSCLC was 54 µM; with HS 578T breast, > 100 µM; in the assay with DU-145 prostate it was > 100 µM; in the assay on EKVX NSCLC, > 100 µM; in the assay with SF-295 CNS it was > 100 µM; in the assay with U251 CNS it was > 100 µM. Besides, the total growth inhibition concentration (TGI) is > 100 µM in the assay with RPMI-8226 leukemia; 66.8 µM in the assay with UACC-62 melanoma; > 100 µM with NCI/ADR-RES ovarian; > 100 µM in the assay with HCT-116 colon; > 100 µM in the assay with SF-268 CNS.

In the case of `O=C(c1ccccc1)N1CCC(CC2(c3cc4ccccc4[nH]3)OCCO2)CC1`, the TGI in the assay on HOP-92 NSCLC is 93 µM; in the assay on MDA-N, 87.5 µM; in the assay on DU-145 prostate it was > 100 µM; with EKVX NSCLC, > 100 µM; in the assay with SF-295 CNS, > 100 µM; in the assay with U251 CNS, > 100 µM. Further, the TGI in the assay with RPMI-8226 leukemia was 6.36 µM; in the assay on UACC-62 melanoma it was 39.4 µM; in the assay with NCI/ADR-RES ovarian, > 100 µM; in the assay with HCT-116 colon it was > 100 µM; with SF-539 CNS, > 100 µM; in the assay with SF-268 CNS it was > 100 µM.

Consider `COc1cc(C2(c3ncc[nH]3)SSSCC2O)ccc1O` (stereo not given), for which the TGI with HOP-92 NSCLC is 58.3 µM; in the assay with EKVX NSCLC, > 100 µM; in the assay with SF-295 CNS, > 100 µM; with U251 CNS, > 100 µM; in the assay with RPMI-8226 leukemia, > 100 µM; in the assay with UACC-62 melanoma, > 51.2 µM. The TGI is > 62.8 µM in the assay with NCI/ADR-RES ovarian, > 100 µM in the assay with HCT-116 colon, > 100 µM in the assay with SF-539 CNS and 23.8 µM in the assay on SF-268 CNS.

In the case of `O=C(CSCC(=O)N/N=C\c1cccc([N+](=O)[O-])c1)N/N=C\c1cccc([N+](=O)[O-])c1`, the TGI in the assay with HOP-92 NSCLC is > 100 µM; in the assay with HS 578T breast it was > 100 µM; in the assay with DU-145 prostate it was > 100 µM; with EKVX NSCLC, > 100 µM; in the assay on SF-295 CNS, 30.5 µM; with U251 CNS it was 32.4 µM. The TGI in the assay on RPMI-8226 leukemia is > 100 µM; in the assay with UACC-62 melanoma, > 100 µM; in the assay with NCI/ADR-RES ovarian it was 60 µM; in the assay on HCT-116 colon, > 100 µM; with SF-539 CNS, 84.7 µM; in the assay on SF-268 CNS it was > 100 µM.

As to `CSCSCC(CO)NC(=O)/C(C)=C\c1c(C)[nH]c(=O)[nH]c1=O` (stereo not given), the TGI in the assay on HOP-92 NSCLC was 23.9 µM; in the assay with EKVX NSCLC it was > 250 µM; with SF-295 CNS, > 250 µM; in the assay with U251 CNS it was > 250 µM; with RPMI-8226 leukemia it was > 250 µM; in the assay on UACC-62 melanoma, > 250 µM. Also, the TGI in the assay with NCI/ADR-RES ovarian, with HCT-116 colon, with SF-539 CNS and with SF-268 CNS was > 250 µM throughout.

For `CCc1ccc(COC(=O)C2=C(C)NC(C)=C(C(=O)OCc3ccc(CC)cn3)C2C2=COCCO2)nc1`, the TGI with HOP-92 NSCLC was 43 µM; in the assay on HS 578T breast, 37.7 µM; in the assay with DU-145 prostate, > 100 µM; in the assay with EKVX NSCLC it was 65.1 µM; with SF-295 CNS, 61.3 µM; with U251 CNS, 35.4 µM. The TGI is 36.7 µM in the assay on UACC-62 melanoma; 63.4 µM with NCI/ADR-RES ovarian; 31 µM in the assay on HCT-116 colon; 27.7 µM with SF-539 CNS; > 100 µM with SF-268 CNS.

The record behind these values is PubChem BioAssay (NCI).
